Experimental data as given in ChEMBL document CHEMBL3507680, “University of Dundee, Gates Library screen for HepG2 cell viability”.

Experiment: Human HepG2 cell viability assay in 384 well format
Format: toxicity, cell-based
Set-up: dose 125 nL, time 70.5 hour; concentration not given beside the values
Conditions: HepG2 cells, read-out: Inhibition

Compound | cytotoxicity at 70.5 h
Cn1nccc1C1CCN(Cc2ccn(-c3ccccc3)n2)CC1 | -5.5%
CCn1cnc2c(c(Br)nn2C)c1=O | -17.1%
Cc1c(Cl)cccc1OCC(=O)NC1(C#N)CCSC1 (stereo not given) | -10.3%
Cn1nc(Br)c2c(=O)n(CCc3ccccc3)cnc21 | -8.29%
N#CC1(NC(=O)COc2cc(Cl)cc(Cl)c2)CCSC1 (stereo not given) | -14.6%
N#CC1(NC(=O)COc2cc(Cl)cc(Cl)c2)CCOCC1 | -5.72%
CN1CCN(c2ccc(NCc3ccc(OC(F)(F)F)cc3)cn2)CC1 | -11.2%
CN(C)Cc1nc(C(C)(C)NC(=O)c2ccc3ccccc3c2)no1 | -6.87%
N#Cc1cc(F)ccc1NCC1CCS(=O)(=O)CC1 | -1.39%
O=C(CC1CCN(CCN2CCCCC2)CC1)N1CCOCC1 | -9.66%
Cc1sc(NC(=O)CN2CCCC(c3ncc[nH]3)C2)c(C)c1C (stereo not given) | -14.9%
O=C(CN1CCCC(c2ncc[nH]2)C1)NCC(F)(F)F (stereo not given) | 18.7%
COc1ccc(CN(C(=O)C2CCCS2)c2ccncc2)cc1 (stereo not given) | -8.12%
COc1ccc(CN(C(=O)C2CCOCC2)c2ccncc2)cc1 | -10.6%
CC(C)(C)CC1CCCN1Cc1nc(-c2ccco2)no1 (stereo not given) | 18%
Cn1cnnc1CNC(=O)CCCOc1ccccc1Cl | -14.3%
CN(CCc1nc(-c2cccc(Cl)c2)no1)CCn1cccn1 | -5.46%
CN(C)Cc1nc(C(C)(C)NC(=O)c2nc3ccccc3s2)no1 | -7.47%
CNS(=O)(=O)CCCNC(C)(C)c1nc(C)cs1 | -1.16%
COc1ncccc1CNc1snc(Cl)c1C#N | -103%
O=C(CNc1cc(-n2cnnn2)ccc1F)Nc1cc(F)ccc1F | -96.7%
CNC(=O)Cn1cc(Nc2cccc(F)c2C#N)cn1 | -32.8%

Compound | cytotoxicity at 70.5 h
Cc1nc(-c2ccco2)ccc1C(=O)NCC(=O)N1CCCCC1 | -117%
Cc1cccc(CSc2nnc(C)n2CC(N)=O)c1 | -91.2%
COC(=O)C1=NN2C(=NS(=O)(=O)c3ccccc32)N1 | -89.7%
COc1cc(CSc2nnc(C)n2CC(N)=O)ccc1SC | -118%
O=C(O)c1cc(S(=O)(=O)Nc2cccc3c2OCCO3)c(Cl)cc1F | -124%
CCOCCc1nc(-c2cnn3c(C)cc(C)nc23)no1 | -107%
CCS(=O)(=O)Cc1nc(-c2cnn3c(C)cc(C)nc23)no1 | -116%
COCc1nc(C(=O)OCC2CCN(c3ccccc3)C2)cs1 (stereo not given) | -88.7%
NC(=O)C1CN(c2ccc(Br)cn2)CCO1 (stereo not given) | -26.8%
Cc1ccc(C(=O)N2CCC3(CCCC3)CC2)c(=O)[nH]1 | -99.3%
O=C(Cc1cccs1)NS(=O)(=O)c1cccc2cnccc12 | -116%
CCS(=O)(=O)N1CCC(Nc2c(Cl)cccc2C#N)CC1 | -90.6%
CC(NC(=O)c1cccs1)(C(N)=O)c1cccc(C(F)(F)F)c1 (stereo not given) | -101%
CCn1c(C)cc(C(=O)N2CCC(Nc3cccnn3)CC2)c1C | -108%
CN(Cc1ccccc1)C(=O)CCS(=O)(=O)c1ccc2c(c1)OCCO2 | -62.4%
O=C(NCCC(=O)N1CCCC1)C(OC1CCCC1)c1ccccc1 (stereo not given) | 34.3%
CCN(CCO)C(=O)Nc1ccc(OCCOC)nc1 | 2.78%
CCCn1[nH]cc/c1=N\C(=O)CN1CCC[C@H]1CO | 2.76%
CC(NC(=O)c1cccc(CN2CCN(C)CC2)c1)c1ccccn1 (stereo not given) | 0.178%
CCOc1ncccc1CNC(=O)c1csc(Br)c1 | -8.48%
CN(C)c1ncccc1CNC(=O)c1csc(Br)c1 | 13.3%
O=C1CCN(C(=O)C2(c3ccc(Br)cc3)CC2)CCN1 | 1.42%

Compound | cytotoxicity at 70.5 h
CC(NC(=O)NCc1cccc(CN2CCCC2)c1)c1nccs1 (stereo not given) | -5.42%
CN(CC(=O)NC(c1ccc(F)cc1)C(F)(F)F)S(C)(=O)=O (stereo not given) | -0.794%
CN(Cc1cc(Br)cn1C)C(=O)c1ccsc1 | -7.08%
COc1ncccc1CNC(=O)c1c[nH]c(=O)c(Br)c1 | -4.91%
CC1(C)CC1C(=O)NS(=O)(=O)Cc1cc(-c2ccccc2)no1 (stereo not given) | -1.85%
Cc1noc(NCc2ccc(F)cc2F)n1 | 21.8%
CN(CCC#N)C(=O)CN1CCCC1c1cccs1 (stereo not given) | -4.47%
O=C(NCCN1CCOCC1)C(OC1CCCC1)c1ccccc1 (stereo not given) | -3.19%
CN(Cc1ccco1)C(=O)CN1CCCC1c1cccs1 (stereo not given) | 24.6%
Cc1nc(CNC2CCc3nc(C(C)C)nn3C2)oc1C (stereo not given) | -4.84%
CCc1nnc(C2Cc3ccccc3CN2Cc2cc(C)on2)o1 (stereo not given) | -2.94%
O=C(Nc1cccs1)N(CCO)CCOCC(F)(F)F | 6.76%
CCN(CC)c1ccc(CNC(=O)c2cccc(C)n2)cn1 | 11.5%
CS(=O)(=O)N1CCC(C(=O)N2CCN(Cc3cccc(Cl)c3)CC2)CC1 | -8.76%
CC1(C)COCCN1C(=O)Cc1csc(Cc2ccccn2)n1 | -7.18%
CN1CCC(C(=O)N2CCN(Cc3cccc(Cl)c3)CC2)CC1=O (stereo not given) | 3.2%
CCN(CC)c1ccc(CNC(=O)c2ccccn2)cn1 | 10.8%
COc1ccccc1CC1CCN(C(=O)CCN2CCOC2=O)CC1 | 2.48%
Cc1ccccc1C1(CNC(=O)N2CCC(CC(N)=O)CC2)CC1 | -4.35%
O=C(Cc1cccs1)NCc1ccnc(OC2CCOCC2)c1 | -6.12%
Cc1c(NC(C)C(C)C)cccc1C(=O)NCc1cnn(C)c1 (stereo not given) | -2.68%
Cc1ccc(CNC(=O)C2CCN(C(=O)c3ccccc3)CC2)n1C | -8.06%

Compound | cytotoxicity at 70.5 h
NC(=O)N1CCCC1COC(=O)c1cc(F)ccc1F (stereo not given) | -1.3%
NC(=O)N1CCCC1COC(=O)c1ccc(F)cc1Br (stereo not given) | 12.5%
CCOc1cc(F)ccc1NC(=O)N(C(C)CS(C)(=O)=O)C1CC1 (stereo not given) | -4.36%
CC(CS(C)(=O)=O)N(C(=O)Nc1ccc(F)cc1F)C1CC1 (stereo not given) | -1.48%
Cc1noc(-c2cccnc2N2CCOC(C)(c3cnn(C)c3)C2)n1 (stereo not given) | -6.06%
CNC(=O)CC1CCN(C(=O)NCC2(c3ccccc3F)CC2)CC1 | -3.18%
COCCOCCCC(=O)N1CCC(Cc2ccccc2OC)CC1 | -10.9%
Cc1nc(C)c(C(=O)N(C)Cc2cnn(C)c2)s1 | 1.01%
Cc1ccccc1C1CCN(C(=O)CCNS(C)(=O)=O)C1 (stereo not given) | 20.6%
COCCNC(=O)c1cc(OC)ccc1Br | 0.394%
Cc1nn(C)c(C)c1CC(=O)NCc1cccnc1N1CCOCC1 | -5.49%
Cc1nn(C)c(Cl)c1C(=O)NCc1cccnc1N1CCOCC1 | -11.8%
Cc1nc(CCNC(=O)NC2CCCN(c3ncccn3)C2)cs1 (stereo not given) | 23.9%
CS(=O)(=O)NCC1CCCN(C(=O)Nc2ccccc2N2CCCC2)C1 (stereo not given) | -1.87%
CNS(=O)(=O)c1ccc(CCC(=O)NCc2cccc(OC)c2)cc1 | -0.152%
CN(Cc1cnn(C)c1)C(=O)c1ccc(=O)n(Cc2ccccc2)n1 | 27.5%
COC(=O)C(C)(C)NC(=O)C1CC(=O)N(CC(F)(F)F)C1 (stereo not given) | 0.904%
Cc1nnc2n1CCN(C(=O)c1ccn(-c3cccc(F)c3)n1)C2 | 5.14%
Cc1nn(C)c(Cl)c1CNCc1cccnc1N1CCCCC1 | -2.26%
